Measured values: patent US12234232B2, “Aromatic heterocyclic compound with kinase inhibitory activity” (SHANGHAI ENNOVABIO PHARMACEUTICALS CO., LTD., priority 2018, dated 2025)

Tests used:
JAK1 [1] = biological target: T1, JAK1 (Homo sapiens, UniProt P23458); experiment: In vitro JAK1 kinase activity assay (HTRF kinEASE TK); assay type: biochemical; design: purchased Thermo Fisher; conditions: 1.1 μM ATP, 60 minutes, room temperature; read-out: IC50 JAK1 (enzyme activity assay)
Protocol: (§1) Recombinant human JAK1 protein was purchased from Thermo Fisher. JAK2 and JAK3 proteins were purchased from Carna Biosciences. HTRF kinEASE TK kit was purchased from Cisbio Bioassays. BioTek microplate reader Synergy Neo 2 was used to read the plate.
(§2) The test compounds were of 4-fold serial dilution, and the final concentration ranged from 10 μM to 0.04 nM in duplicates for each concentration. The concentration of DMSO in the reaction system was 1%.
The reaction included 0.5 ng/μl JAK 1 protein kinase, 1 μM TK Substrate-biotin peptide substrate, 1.1 μM ATP, 1× enzymatic buffer, 5 mM MgCl2, 1 mM MnCl2, 1 mM DTT, and 2.5 nM SEB. The detection plate was White Proxiplate 384-Plus plate (PerkinElmer), and the mixture (10 μl) was reacted at room temperature for 60 minutes.
(§3) Reaction detection: 10 μl of detection reagent was added to the reaction plate containing final concentration of 0.125 μM of SA-XL665 and 5 μl 1×TK-Antibody. The mixture was incubated overnight at room temperature. The plate was read using Synergy Neo 2.
(§4) Data analysis: 665/620 Ratio was converted into inhibition rate (%) through the following formula: inhibition rate (%)=(Ratiomax−Ratiotest)/(Ratiomax−Ratiomin)×100%. Ratiomax is a positive control without detection compound, Ratiomin is a negative control without detection compound and kinase, Ratiotest is the detection value of each concentration of different compounds. 4 parameter curve fitting was performed to measure the IC50 (nM) values. The details are shown in, Table 1.

JAK2 [2] = biological target: T2, JAK2 (Homo sapiens, UniProt O60674); experiment: In vitro JAK2 kinase activity assay (HTRF kinEASE TK); assay type: biochemical; design: purchased Carna Biosciences; conditions: 2.7 μM ATP, 25 minutes, room temperature; read-out: IC50 JAK2 (enzyme activity assay)
T2 sequence (O60674 whole entry): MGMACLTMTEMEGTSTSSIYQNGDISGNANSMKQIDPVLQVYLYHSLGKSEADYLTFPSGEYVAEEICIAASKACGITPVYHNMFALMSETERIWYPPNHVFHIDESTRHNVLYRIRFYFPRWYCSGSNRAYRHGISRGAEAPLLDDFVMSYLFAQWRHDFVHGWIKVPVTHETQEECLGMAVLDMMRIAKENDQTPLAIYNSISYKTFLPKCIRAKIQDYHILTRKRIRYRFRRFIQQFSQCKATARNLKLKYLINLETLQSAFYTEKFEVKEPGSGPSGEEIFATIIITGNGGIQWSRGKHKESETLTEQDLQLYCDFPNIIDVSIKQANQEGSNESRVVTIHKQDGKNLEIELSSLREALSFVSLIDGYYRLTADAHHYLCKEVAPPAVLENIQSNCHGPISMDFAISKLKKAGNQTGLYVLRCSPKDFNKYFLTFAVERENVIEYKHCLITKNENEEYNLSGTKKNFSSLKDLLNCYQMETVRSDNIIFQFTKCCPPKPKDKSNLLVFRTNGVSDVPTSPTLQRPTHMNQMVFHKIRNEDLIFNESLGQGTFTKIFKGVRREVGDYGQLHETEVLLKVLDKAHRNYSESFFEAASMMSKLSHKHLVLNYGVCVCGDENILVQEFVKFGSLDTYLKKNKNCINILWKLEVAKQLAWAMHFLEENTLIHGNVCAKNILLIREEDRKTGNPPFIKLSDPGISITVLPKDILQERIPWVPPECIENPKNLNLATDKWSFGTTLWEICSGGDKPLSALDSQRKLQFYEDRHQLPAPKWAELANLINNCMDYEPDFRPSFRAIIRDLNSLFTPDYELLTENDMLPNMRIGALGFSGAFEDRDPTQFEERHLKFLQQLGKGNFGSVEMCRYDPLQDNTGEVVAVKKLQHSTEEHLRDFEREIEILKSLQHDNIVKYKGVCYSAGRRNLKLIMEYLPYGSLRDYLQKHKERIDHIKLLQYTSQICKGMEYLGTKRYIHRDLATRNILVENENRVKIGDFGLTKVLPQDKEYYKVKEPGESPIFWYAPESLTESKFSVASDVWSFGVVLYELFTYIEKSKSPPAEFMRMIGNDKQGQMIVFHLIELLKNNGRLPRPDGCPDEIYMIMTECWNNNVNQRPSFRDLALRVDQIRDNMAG
Protocol: as §1, §2
(§5) The reaction included 0.001 ng/μl JAK 2 protein kinase, 1 μM TK Substrate-biotin peptide substrate, 2.7 μM ATP, 1× enzymatic buffer, 5 mM MgCl2, and 1 mM DTT. The detection plate was White Proxiplate 384-Plus plate (PerkinElmer), and the mixture (10 μl) was reacted at room temperature for 25 minutes.
as §3, §4

Mouse pharmacokinetics = assay type: in vivo; conditions: CD-1 mice, 5 mg/kg, P.O.
Protocol: Test compound was intravenously (IV) or orally (PO) administrated to CD-1 mice. Blood samples were collected at different time points as indicated below. The concentration of the compounds in the mouse plasma was determined by LC-MS/MS and related parameters were calculated. The details are as follows: the required amount of the test product was taken to prepare a solution of the required concentration for intravenous injection or oral administration. The age of the animals was about 6-8 weeks at the beginning of the dosing experiment. Blood sampling time points are 0.083 h, 0.25 h, 0.5 h, 1 h, 2 h, 4 h, 8 h and 24 h after compound administration. The Phoenix WinNonlin 7.0 software was used to calculate the pharmacokinetic parameters through the blood drug concentration data at different time points.

JAK1 [3] = biological target: T1, JAK1; experiment: Cellular JAK1 activity assay: IL-6-stimulated STAT3 phosphorylation in TF-1 cells; assay type: cell-based; design: endogenous in cells; host or cells: TF-1 cells (ATCC); conditions: IL-6 (30 ng/mL), pSTAT3, read-out: IC50 Cell JAK1
Protocol: (§6) In TF-1 cells, IL-6 stimulation leads to phosphorylation of STAT3 through JAK1, while EPO stimulants phosphorylation of STAT5 via JAK2.
(§7) TF-1 cells were obtained from American Type Culture Collection (ATCC). TF-1 cells were starved overnight (cell density was 100,000 cells/well at plating) in OptiMEM medium without phenol red containing 0.5% fetal bovine serum (FBS), 0.1 mM non-essential amino acids (NEAA), 1 mM sodium pyruvate at 37° C. The compound was serially diluted in DMSO, added to TF-1 cells and incubated at 37° C. for 20 minutes. The final concentration of DMSO was 0.2%. Then, human recombinant cytokine IL-6 (30 ng/mL) or EPO (10 U/mL) was added to the wells containing TF-1 cells. After the cell plate was incubated for 30 minutes, cells were lysed, and the phosphorylation of STAT3 (IL-6) or STAT5 (EPO) in the cell lysate (pSTAT3/total STAT3 Elisa Kit: CST #7300C/CST #7305C; pSTAT5 and total STAT5 Elisa Kit: Abcam #ab205715) was measured. The IC50 value was determined as the concentration of the compound required to inhibit STAT phosphorylation by 50% relative to the measured DMSO control.

JAK3 protein = biological target: T3, JAK3 protein (Homo sapiens, UniProt P52333); experiment: In vitro JAK3 kinase activity assay (HTRF kinEASE TK); assay type: biochemical; conditions: 0.75 μM ATP, 25 minutes, room temperature; read-out: IC50 JAK3 (enzyme activity assay)
T3 construct: purchased Carna Biosciences
T3 sequence (P52333 1-1124): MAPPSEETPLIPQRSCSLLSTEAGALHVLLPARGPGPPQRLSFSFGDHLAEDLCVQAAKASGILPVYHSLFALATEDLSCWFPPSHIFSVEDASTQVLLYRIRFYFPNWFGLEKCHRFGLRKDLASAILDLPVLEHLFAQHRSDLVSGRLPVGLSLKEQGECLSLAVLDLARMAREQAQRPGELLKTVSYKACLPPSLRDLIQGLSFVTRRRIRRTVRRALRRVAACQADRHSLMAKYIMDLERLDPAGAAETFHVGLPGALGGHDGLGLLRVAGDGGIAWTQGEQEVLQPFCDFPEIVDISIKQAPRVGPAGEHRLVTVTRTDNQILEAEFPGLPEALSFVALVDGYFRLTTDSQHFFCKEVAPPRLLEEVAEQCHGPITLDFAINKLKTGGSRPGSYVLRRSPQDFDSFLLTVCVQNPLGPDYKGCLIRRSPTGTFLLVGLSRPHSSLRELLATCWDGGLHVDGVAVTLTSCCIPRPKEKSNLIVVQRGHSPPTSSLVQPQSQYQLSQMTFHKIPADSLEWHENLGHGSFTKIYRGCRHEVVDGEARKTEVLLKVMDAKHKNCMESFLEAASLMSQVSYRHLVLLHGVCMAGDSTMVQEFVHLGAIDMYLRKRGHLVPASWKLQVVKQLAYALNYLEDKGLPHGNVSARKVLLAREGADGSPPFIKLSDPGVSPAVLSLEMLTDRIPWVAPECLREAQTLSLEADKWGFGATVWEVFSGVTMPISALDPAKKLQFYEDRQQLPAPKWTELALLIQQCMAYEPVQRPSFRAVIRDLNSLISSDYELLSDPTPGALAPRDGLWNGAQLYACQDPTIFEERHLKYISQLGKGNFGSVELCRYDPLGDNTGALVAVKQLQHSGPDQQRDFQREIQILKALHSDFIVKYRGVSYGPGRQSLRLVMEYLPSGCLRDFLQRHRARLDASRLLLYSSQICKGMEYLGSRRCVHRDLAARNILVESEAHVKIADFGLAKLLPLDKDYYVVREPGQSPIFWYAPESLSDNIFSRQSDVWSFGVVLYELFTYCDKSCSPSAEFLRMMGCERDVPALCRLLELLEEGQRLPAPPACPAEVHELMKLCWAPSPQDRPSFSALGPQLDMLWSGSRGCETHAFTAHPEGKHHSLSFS
Protocol: as §1, §2
as §5, with “included […]” for “included 0.001 ng/μl”, “JAK 3” for “JAK 2”, “substrate, 0.75” for “substrate, 2.7”
as §3, §4

JAK2 [4] = biological target: T2, JAK2; experiment: Cellular JAK2 activity assay: EPO-stimulated STAT5 phosphorylation in TF-1 cells; assay type: cell-based; design: endogenous in cells; host or cells: TF-1 cells (ATCC); conditions: EPO (10 U/mL), pSTAT5, read-out: IC50 Cell JAK2
Protocol: as §6, §7

T1 sequence (P23458 whole entry): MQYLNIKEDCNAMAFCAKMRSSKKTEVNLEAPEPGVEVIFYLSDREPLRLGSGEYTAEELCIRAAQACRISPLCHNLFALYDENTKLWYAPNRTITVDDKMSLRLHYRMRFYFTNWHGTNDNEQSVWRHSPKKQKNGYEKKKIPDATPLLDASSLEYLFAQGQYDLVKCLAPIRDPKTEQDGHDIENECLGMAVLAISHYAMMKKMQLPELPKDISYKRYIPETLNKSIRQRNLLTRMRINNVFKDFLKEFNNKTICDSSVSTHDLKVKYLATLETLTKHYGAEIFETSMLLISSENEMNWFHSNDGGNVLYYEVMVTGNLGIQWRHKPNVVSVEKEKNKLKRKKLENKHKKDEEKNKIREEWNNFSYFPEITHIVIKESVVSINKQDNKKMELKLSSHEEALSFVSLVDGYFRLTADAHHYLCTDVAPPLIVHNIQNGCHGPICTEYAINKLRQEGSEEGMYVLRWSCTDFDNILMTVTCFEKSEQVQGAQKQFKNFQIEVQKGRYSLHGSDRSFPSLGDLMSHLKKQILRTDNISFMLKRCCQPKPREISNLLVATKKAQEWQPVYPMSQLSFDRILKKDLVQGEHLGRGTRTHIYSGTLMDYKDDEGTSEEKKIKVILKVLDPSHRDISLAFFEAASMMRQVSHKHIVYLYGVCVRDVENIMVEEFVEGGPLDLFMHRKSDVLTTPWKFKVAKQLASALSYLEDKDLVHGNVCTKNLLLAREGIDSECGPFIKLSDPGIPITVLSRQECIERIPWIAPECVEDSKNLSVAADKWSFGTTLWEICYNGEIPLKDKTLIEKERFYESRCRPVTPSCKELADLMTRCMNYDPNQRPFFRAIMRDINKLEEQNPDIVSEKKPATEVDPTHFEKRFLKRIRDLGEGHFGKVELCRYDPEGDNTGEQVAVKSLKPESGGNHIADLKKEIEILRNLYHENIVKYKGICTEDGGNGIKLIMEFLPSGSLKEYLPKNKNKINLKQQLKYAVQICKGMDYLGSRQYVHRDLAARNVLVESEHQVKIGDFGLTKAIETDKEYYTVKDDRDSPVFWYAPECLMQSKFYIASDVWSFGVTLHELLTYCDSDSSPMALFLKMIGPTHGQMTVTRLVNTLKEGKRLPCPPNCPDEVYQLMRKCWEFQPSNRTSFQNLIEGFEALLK

`CC[C@H](C(=O)Nc1nccc2c(-c3nc(Nc4cccc(S(C)(=O)=O)c4F)ncc3C)c[nH]c12)N1CC2CCC(C1)N2C` [Example 25, (R)—N-(3-(2-((2-Fluoro-3-(methylsulfonyl)phenyl)amino)-5-methylpyrimidin-4-yl)-1H-pyrrolo[2,3-c]pyridin-7-yl)-2-(8-methyl-3,8-diazabicyclo[3.2.1]octane-3-yl)butanamide] showed an IC50 (JAK1 [1]) of under 5 nM, an IC50 (JAK2 [2]) of under 100 nM and an F (Mouse pharmacokinetics) of 66.1%. It also gave a Cmax (Mouse pharmacokinetics; mouse, po, plasma) of 155 ng/mL, a half-life (Mouse pharmacokinetics; mouse, po, plasma) of 3.57 h and an AUC(0-t) (Mouse pharmacokinetics; mouse, po, plasma, read-out: AUC0-24 hr) of 946 ng·h/mL. The IC50 (JAK1 [3]) was 100 to 1000 nM, the IC50 (JAK3 protein) was 500 to 10000 nM and the IC50 (JAK2 [4]) was over 20000 nM.
